Assay results: patent publication US11926616B2, “Aminopyrazine diol compounds as PI3K-γ inhibitors” (Incyte Corporation, priority 2018, dated 2024)

tested on: Phosphorylated Ribosomal Protein S6 (RPS6) in THP-1 cells; assay: THP-1 RPS6 ELISA Assay; type: cell-based, Human; conditions: Homo sapiens; THP-1 cells, serum starved, 2 hours compound, 10 nM MCP-1 for 15 minutes, Phospho-RPS6 ELISA; read-out: PI3Kγ_THP1_RPS6_ELISA IC50
Method: Example A. THP-1 RPS6 ELISA Assay
To measure the Phosphorylated Ribosomal Protein S6 (RPS6) in cell lysates, THP-1 cells (Human Acute Monocytic Leukemia) are purchased from ATCC (Manassas, VA) and maintained in RPMI with 10% FBS (Gibco/Life Technologies, Carlsbad, CA). For the assay, THP-1 cells are serum starved overnight in RPMI, then plated in RPMI (2×10^5 cells/well in 90 μL) into 96-well flat-bottom tissue culture treated plates (Corning, Corning, NY), in the presence or absence of a concentration range of test compounds. Covered plates are incubated for 2 hours at 37° C., 5% CO2 then treated with or without 10 nM MCP-1(MYBioSource, San Diego, CA) for 15 minutes at 37° C., 5% CO2. Plates are centrifuged at 1600 RPM and supernatants are removed. Cells are lysed in Lysis Buffer (Cell Signaling, Danvers, MA) with Protease Inhibitor (Calbiochem/EMD, Germany), PMSF (Sigma, St Louis MO), HALTS (Thermo Fisher, Rockford, IL) for 30 min on wet ice. Cell lysates are frozen at −80° C. before testing. The lysates are tested in the Human/Mouse/Rat Phospho-RPS6 ELISA (R&D Systems, Inc. Minn, MN). The plate is measured using a microplate reader (SpectraMax M5—Molecular Devices, LLC Sunnyvale, CA) set to 450 nm with a wavelength correction of 540. IC50 determination is performed by fitting the curve of inhibitor percent inhibition versus the log of the inhibitor concentration using the GraphPad Prism 5.0 software.

IC50, < 100 nM:
[2H]C([2H])([2H])c1ccc(C(O)(CO)C(F)(F)F)cc1-c1cnc(N)c(C(=O)N[C@@H](C)CO)n1 (single isomer, unassigned) [Example 33]
Cc1ccc(C(O)(CO)C(F)(F)F)cc1-c1cnc(N)c(-c2ccns2)n1 (single isomer, unassigned) [Example 6, 2-(3-(5-Amino-6-(isothiazol-5-yl)pyrazin-2-yl)-4-methylphenyl)-3,3,3-trifluoropropane-1,2-diol]
Cc1ccc(C(O)(CO)C(F)(F)F)cc1-c1cnc(N)c(-n2ccnn2)n1 (single isomer, unassigned) [Example 13, 2-(3-(5-Amino-6-(1H-1,2,3-triazol-1-yl)pyrazin-2-yl)-4-methylphenyl)-3,3,3-trifluoropropane-1,2-diol]
Cc1ccc(C(O)(CO)C(F)(F)F)cc1-c1cnc(N)c(-c2cnsc2)n1 (single isomer, unassigned) [Example 5, 2-(3-(5-Amino-6-(isothiazol-4-yl)pyrazin-2-yl)-4-methylphenyl)-3,3,3-trifluoropropane-1,2-diol]
Cc1ccc(C(O)(CO)C(F)(F)F)cc1-c1cnc(N)c(-c2cn[nH]c2)n1 (single isomer, unassigned) [Example 3, 2-(3-(5-Amino-6-(1H-pyrazol-4-yl)pyrazin-2-yl)-4-methylphenyl)-3,3,3-trifluoropropane-1,2-diol]
Cc1ncc(-c2nc(-c3cc(C(O)(CO)C(F)(F)F)ccc3C)cnc2N)s1 (single isomer, unassigned) [Example 10, 2-(3-(5-Amino-6-(2-methylthiazol-5-yl)pyrazin-2-yl)-4-methvlphenyl)-3,3,3-trifluoropropane-1,2-diol]
[2H]C([2H])([2H])c1ccc(C(O)(CO)C(F)(F)F)cc1-c1cnc(N)c(C(=O)NC23CC(CO)(C2)C3)n1 (single isomer, unassigned) [Example 32]
Cc1ccc(C(O)(CO)C(F)(F)F)cc1-c1cnc(N)c(-c2cnco2)n1 (single isomer, unassigned) [Example 11, 2-(3-(5-Amino-6-(oxazol-5-yl)pyrazin-2-yl)-4-methylphenyl)-3,3,3-trifluoropropane-1,2-diol]
Cc1cc(-c2nc(-c3cc(C(O)(CO)C(F)(F)F)ccc3C)cnc2N)sn1 (single isomer, unassigned) [Example 7, 2-(3-(5-amino-6-(3-methylisothiazol-5-yl)pyrazin-2-yl)-4-methylphenyl)-3,3,3-trifluoropropane-1,2-diol]
Cc1ccc(C(O)(CO)C(F)(F)F)cc1-c1cnc(N)c(-c2cnn(C)c2)n1 (single isomer, unassigned) [Example 2, 2-(3-(5-Amino-6-(1-methyl-1H-pyrazol-4-yl)pyrazin-2-yl)-4-methylphenyl)-3,3,3-trifluoropropane-1,2-diol]
[2H]C([2H])([2H])c1ccc(C(O)(CO)C(F)(F)F)cc1-c1cnc(N)c(C(=O)NC23CCC(O)(CC2)C3)n1 (single isomer, unassigned) [Example 35]
Cc1cc(-c2nc(-c3cc(C(O)(CO)C(F)(F)F)ccc3C)cnc2N)on1 (single isomer, unassigned) [Example 4, 2-(3-(5-Amino-6-(3-methylisoxazol-5-yl)pyrazin-2-yl)-4-methylphenyl)-3,3,3-trifluoropropane-1,2-diol]
[2H]C([2H])([2H])c1ccc(C(O)(CO)C(F)(F)F)cc1-c1cnc(N)c(C(=O)NCC(C)(C)C#N)n1 (single isomer, unassigned) [Example 34]

IC50, < 500 nM:
Cc1ccc(C(O)(CO)C(F)(F)F)cc1-c1cnc(N)c(-n2cncn2)n1 (single isomer, unassigned) [Example 15, 2-(3-(5-Amino-6-(1H-1,2,4-triazol-1-yl)pyrazin-2-yl)-4-methylphenyl)-3,3,3-trifluoropropane-1,2-diol]
[2H]C([2H])([2H])c1ccc(C(O)(CO)C(F)(F)F)cc1-c1cnc(N)c(C(=O)N[C@H](C)CO)n1 (single isomer, unassigned) [Example 36]
